This is an account of results in US20250206704A1, “ENGINEERED IONOPHORES FOR TRANSPORT OF METAL IONS” (The Brigham and Women's Hospital, Inc., priority 2022, published 2025).

The subject of data set [1] is U2OS cells. Kind of data set: ICP-MS analysis of intracellular Zn(II) in U2OS cells. To be noted: 10 μM Zn(II) and 5 μM compound, 1 hour. It is filed as cell-based. As to the method:
Next, Applicants used inductively coupled plasma mass spectrometry (ICP-MS) to validate the imaging assay and the ionophores activity (FIG. 1F). While the intracellular Zn^II levels where similar between DMSO and chelator 1, Zn^II concentrations inside cells were 3-fold higher when Applicants co-treated ionophores 8 and 9.
U2OS cells (˜200,000) were plated in a 6-well dish. After a day, the medium was aspirated, and Zn(II) (10 μM) and compounds (5 μM) containing media (2 mL) were added to each appropriate well. Cells were harvested by first washing each well with PBS containing EDTA (100 μM, 2×2.0 mL) and subsequently adding Milli-Q water ([…] to each well and incubating for 2-4 min. A portion of the resulting cell lysate (900 μL) was collected and transferred to an Eppendorf Safe-Lock tube, snap-frozen in N2(l), and then thawed at room temperature (RT) for a total of three freeze-thaw cycles. The insoluble lysate was pelleted (10 min at 10,000 g), and the soluble protein concentration of each sample was determined using the Pierce 660 nm Protein Assay in a 96-well plate (200 μL of reagent, 14 μL of sample, bovine serum albumin standard curve). Samples were then frozen and lyophilized overnight, and the resulting white, flaky solid was taken up in concentrated nitric acid (200 μL, ultrapure for trace metal analysis, BDH Aristar) and heated at 70° C. for 1 h. A portion of each sample (142 μL) was then diluted with water (2 mL) and a terbium internal standard (Agilent 5190-8590; stock at 10,000 parts per billion [ppb] in 10% nitric acid diluted to 100 ppb in Milli-Q water for addition to samples, 2 ppb final concentration), after which the metal content of the samples was assessed by ICP-MS. […] Therefore, 1 ppb was taken to be equal to 1 μg/L, and the molarity of a particular solution was considered equal to the measured concentration of a particular ion in ppb, divided by the molecular weight of the ion, multiplied by 10-6.

Data set [2] is described as follows: UV/Vis titration, stability constant (logK) with ZnCl2. It is filed as physicochemical. To be noted: UV/Vis titration with ZnCl2, TitrationFit. The source says: Applicants validated the design principles by confirming that the silyl group lowered the binding affinity and shielded the hydrophilic pocket. […] [17] […] Applicants confirmed that all compounds bound Zn^II with 1:1 stoichiometry (FIG. 12). […] Applicants superimposed the X-ray structure of the TIPS-containing Zn^II:9 complex with the literature precedented Zn^II:1 and observed significant structural distortion in the Zn^II:9 complex, which could explain the lower logK.
A solution of ligand was prepared in acetonitrile. The starting concentration was chosen to be around 0.10 mM, based on the absorption maximum of the compound. This solution (2.5 mL) was pipetted into a quartz cuvette with a 1-cm optical path length. The titration was performed by the stepwise addition of a 10-mM ZnC12 solution in acetonitrile. The absorption spectra were measured over the range of 250-800 nm. The calculation of the stability constants was accomplished using TitrationFit.1

Data set [3] deals with Staphylococcus epidermidis. Kind of data set: MIC, broth microdilution. It is filed as cell-based. The source says:
(§1) Next, Applicants evaluated the antibacterial activities of the ionophores. First, Applicants determined their minimum inhibitory concentration (MIC) in the gram-positive bacterium that causes hospital-acquired infections, Staphylococcus epidermidis.
(§2) Applicants reasoned that limiting extracellular zinc with EDTA would abolish ionophore activity by depleting the available metal ions for membrane transport. […] [24]
(§3) Staphylococcus epidermidis ATCC® 12228™, Staphylococcus caprae ATCC® 51549™, Bacillus subtilis ATCC® 6051™, and Bacillus cereus ATCC® 14579™ were grown in cation-adjusted Mueller-Hinton broth (CA-MHB) (catalog no. 90922, Sigma) as per the Clinical and Laboratory Standards Institute guidelines.2 Bacteria were routinely grown at 37° C. under aerobic conditions.
(§4) The MIC assay was performed according to the Clinical and Laboratory Standards Institute protocols.^3 The antibacterial activities of the compounds were measured using the broth microdilution method. Serial dilutions of compounds were prepared in cation-adjusted Müller Hinton Broth. Each dilution (100 μL) was dispensed to each well of a round-bottom plate to obtain final concentrations ranging from 0.07815-40 μM. Bacteria were grown at 37° C. overnight on cation-adjusted Müller Hinton Broth. The bacterial solution was prepared in 0.9% saline and adjusted to obtain an OD600=0.1 using a SpectraMax M5 (Molecular Devices). The resultant suspension was diluted 1:20 with cation-adjusted Müller Hinton Broth. The resulting mixture (10 μL) was added to each well of the plates (approximately 5×10^4 CFU/well), mixed, and incubated at 37° C. for 24 h. The MIC value was determined as the minimum concentration that inhibited the growth of bacteria.
For orientation: Dilution methods test growth across graded concentrations, often in twofold steps.

Data set [4] concerns U2OS cells. Description: Zinc imaging assay (DA-ZP1 fluorescence) of ionophore activity in U2OS cells. It is filed as cell-based. To be noted: U2OS cells; for ionophore activity (Zn^II transport, DA-ZP1 fluorescence): 10 μM Zn(II) and 10 μM compound, 1 hour, then DA-ZP1; for ionophore activity (DA-ZP1 fluorescence): 10 μM Zn(II) and 5 μM compound; for concentration at which ionophore activity is displayed: DA-ZP1, comparison with known ionophores. The source says: A number of bispicolyl-based Zn^II-chelators were synthesized with increasing size at the ortho-position of phenolic OH by a one-step reductive amination between bispicolyl-amine and commercially available 3-substituted salicylaldehydes. Applicants examined the ionophore activity of bispicolyl analogs with methyl (Me, 2), isopropyl (iPr, 3), and tert-butyl (tBu, 4) substitutions (FIG. 1A). […] [13] The cells were first treated with ZnCl2 and ionophore candidates followed by DA-ZP1 treatment and fluorescence measurement.
Applicants experimentally determined the ionophore activity of these silyl-based compounds using the aforementioned DAZ-P1 assay in U2OS cells.
Applicants also determined metal-ion interference of the silyl-based ionophores with focused efforts on 8. Applicants designed a competition assay wherein Applicants pre-treated equimolar amounts of various metal ions, Mg^II, Ca^II, Mn^II, Fe^II, and Na^I, with 10 μM of Zn^II for 1 hour before treatment with DA-ZP1.
Finally, Applicants compared the activity of the designed compounds against known ionophores (FIGS. 2 and 11). […] [16]
In a 96-well plate, 20,000 U2OS cells were plated per well and cultured for 24 h in the incubator set to 37° C. with 5% CO2. […] The medium containing the compound was removed, and the cells were washed with 3×100 μL of fresh medium, and finally another 100 μL of 2 μM of DA-ZP1 was added to the corresponding cell culture medium containing HCS NuclearMask Blue Stain. The cells were again kept for 1 h in the incubator. The medium containing compound was removed, and the cells were washed with 1×100 μL of PBS and 2×100 μL of fresh medium, and finally, another 100 μL of fresh, dye-free medium was added. The cells were immediately imaged using a high-content fluorescence microscope (Operetta Phenix) in both the DAPI and FITC channels at 20× magnification. Images were analyzed using the Harmony software, and data were plotted using GraphPad Prism 9.

The subject of data set [5] is Bacillus cereus. Description: MIC, broth microdilution. It is filed as cell-based. To be noted: read-out: Strain MIC B. cereus. As to the method: as §1, §3, §4
The subject of data set [6] is Staphylococcus caprae. Description: MIC, broth microdilution. To be noted: read-out: Strain MIC S. caprae. It is filed as cell-based. As to the method: as §1, §3, §4
Data set [7] deals with Bacillus subtilis. Kind of data set: MIC, broth microdilution. To be noted: read-out: Strain MIC B. subtilis. It is filed as cell-based. As to the method:
as §1, §3, §4

Data set [8] concerns bacteria vs U2OS cells. Description: Antibacterial selectivity (average molar MIC in bacteria vs EC50 in U2OS cells). It is filed as cell-based.
Data set [9] deals with U2OS cells. Kind of data set: U2OS cell viability assay (CellTiter-Glo). It is filed as cell-based. The conditions noted are these: Homo sapiens, 48 h, read-out: U2OS EC50 + 5 μM Zn^II. As to the method:
as §2
U2OS cells were seeded in black 384-well plates at a density of 3,000 cells per well in 25 μL of medium per well. After seeding, the cells were left to adhere overnight. The compounds to be tested were added to the designated culture plates in 25 μL of medium in triplicate with a normalized DMSO concentration (0.05%) in all treatments, and the plates were placed at 37° C. in a humidified atmosphere containing 5% CO2. After 48 h, 40 μl of CellTiter-Glo (Promega) was added to each well and incubated for 30 min, after which the plate luminescence was analyzed in a PerkinElmer EnVision Manager 1.13 (PerkinElmer). The average growth of treated cells was calculated by correcting the values for background luminescence and was subsequently normalized to the average of the two lowest treatments of the compound in question. Data were plotted and fitted to a dose-response curve using GraphPad Prism 9.

For data set [10], the system named is S. epidermidis, S. caprae, B. subtilis, B. cereus. Description: Average MIC over the four gram-positive strains. It is filed as cell-based. As to the method:
as §1, §4

The conditions of data set [11]: value quoted for comparison; cited from earlier work.

SMILES strings stand for the structures. Values after ≈ are worked out from the molar mass of the structure shown. “Also recorded” adds a separate entry of the source. Where two headings read alike, the source gives them in different places.

Turning to `Oc1ccccc1CN(Cc1ccccn1)Cc1ccccn1` [Compound 1, 2-((bis(pyridin-2-ylmethyl)amino)methyl)phenol], in [1], the “intracellular Zn^II level relative to DMSO” value is recorded as “similar”. The “logK (Zn^II binding)” value in data set [2] is 12.5.

As to `CC(C)(C)c1cccc(CN(Cc2ccccn2)Cc2ccccn2)c1O` [Compound 4, 2-((bis(pyridin-2-ylmethyl)amino)methyl)-6-(tert-butyl)phenol], in [3] (read-out: MIC), the MIC is 7.2 µg/mL (≈ 19.9 µM). Also, in data set [4], the “ionophore activity (Zn^II transport, DA-ZP1 fluorescence)” value is reported as “efficiently transported Zn^II”.

Consider `CC(C)(C)c1ccc(O)c(CN(Cc2ccccn2)Cc2ccccn2)c1` [Compound 5, 2-((bis(pyridin-2-ylmethyl)amino)methyl)-4-(tert-butyl)phenol], for which, in data set [3] (control compound), the antibacterial activity entry is given as “no ionophore activity in U2OS cells or antibacterial activity”. For the same molecule, the “ionophore activity (Zn^II transport, DA-ZP1 fluorescence)” value in data set [4] is listed as “poor ionophore activity; also recorded: no ionophore activity”.

Regarding `C[Si](C)(C)c1cccc(CN(Cc2ccccn2)Cc2ccccn2)c1O` [Compound 6, 2-((bis(pyridin-2-ylmethyl)amino)methyl)-6-(trimethylsilyl)phenol], the minimal inhibitory concentration (MIC) in [3] (read-out: MIC) was approximately 7.5 µg/mL (≈ 19.9 µM). Besides, the “ionophore activity (DA-ZP1 fluorescence)” value in data set [4] is recorded as “elicited detectable fluorescence”.

With `CC[Si](CC)(CC)c1cccc(CN(Cc2ccccn2)Cc2ccccn2)c1O` [Compound 7, 2-((bis(pyridin-2-ylmethyl)amino)methyl)-6-(triethylsilyl)phenol], the minimal inhibitory concentration (MIC) in data set [3] (read-out: MIC) was approximately 8.4 µg/mL (≈ 20 µM).

Turning to `CC(C)(C)[Si](c1ccccc1)(c1ccccc1)c1cccc(CN(Cc2ccccn2)Cc2ccccn2)c1O` [Compound 10, 2-((bis(pyridin-2-ylmethyl)amino)methyl)-6-(tert-butyldiphenylsilyl)phenol], the MIC in data set [3] (read-out: MIC) is approximately 5.4 µg/mL (≈ 9.93 µM). The “ionophore activity (DA-ZP1 fluorescence)” value in [4] was “decreased the activity”.

With `[O-][n+]1ccccc1S` [Pyrithione, pyrithione, reference compound], the minimum inhibitory concentration (MIC) in data set [3] is 1.3 µg/mL (≈ 10.2 µM); in data set [3] (read-out: Strain MIC S. epidermidis), 1.3 µg/mL (≈ 10.2 µM); in data set [5], 1.3 µg/mL (≈ 10.2 µM); in [6], 0.6 µg/mL (≈ 4.72 µM); in data set [7] it was 1.3 µg/mL (≈ 10.2 µM); in data set [10] (read-out: Average MIC), 1.1 µg/mL. Moreover, the minimal inhibitory concentration (MIC) stood at 8.7 µM in data set [10] (read-out: Average MIC (molar, in brackets)) and 1.1 µg/mL in data set [10] (read-out: average MIC). In addition, the “concentration at which ionophore activity is displayed” value in [4] stood at 5 µM. In addition, the antibacterial selectivity stood at 0.11 times in [8]; 0.11 in data set [8] (ratio of average molar MIC and U2OS EC50, Table 4). In addition, the “selective toxicity to bacterial cells over mammalian cells” value in [8] is reported as 0.1 fold. The CC50 in [9] turned out to be 990 nM.

With `c1ccc(CN(CCN(Cc2ccccn2)Cc2ccccn2)Cc2ccccn2)nc1` [TPEN, reference compound], the “logK (Zn^II binding) of known chelator/ionophore” value in [11] was 15.5.

With `CNc1ccc2oc(C[C@H]3O[C@@]4(CC[C@H]3C)O[C@H]([C@H](C)C(=O)c3ccc[nH]3)[C@H](C)C[C@H]4C)nc2c1C(=O)O` [calcimycin, reference compound], the MIC in [3] is approximately 0.16 µg/mL (≈ 0.306 µM).

`C[C@H](CCC(=O)O)C[C@H](C)C[C@H](C)C(=O)/C=C(\O)[C@H](C)C[C@H](C)C/C=C/[C@@H](C)[C@@H](O)[C@@H](C)[C@@H](O)C[C@@H]1CC[C@@](C)([C@H]2CC[C@@](C)([C@@H](C)O)O2)O1` [ionomycin, reference compound] gave an MIC in data set [3] of 15 µg/mL (≈ 21.2 µM).

For the molecule `CC[C@@H](C(=O)O)[C@@H]1O[C@@H]([C@@H](C)[C@H](O)[C@H](C)C(=O)[C@H](CC)[C@H]2O[C@]3(C=C[C@@H](O)[C@]4(CC[C@@](C)([C@H]5CC[C@](O)(CC)[C@H](C)O5)O4)O3)[C@H](C)C[C@@H]2C)[C@@H](C)C[C@@H]1C` [narasin, reference compound], the minimal inhibitory concentration (MIC) in [3] (read-out: MIC) is 0.96 µg/mL (≈ 1.25 µM).

In the case of `CC(C)(C)n1ccn([BH-](n2ccn(C(C)(C)C)c2=S)n2ccn(C(C)(C)C)c2=S)c1=S.[K+]` [potassium hydrotris(N-tert-butyl-2-thioimidazolyl) borate, reference compound], in data set [4], the “concentration at which ionophore activity is displayed” value stood at 5 µM.

`CC[C@@H](C(=O)[C@@H](C)[C@@H](O)[C@H](C)[C@@H]1O[C@@H]([C@@H](CC)C(=O)O)CC[C@@H]1C)[C@H]1O[C@]2(C=C[C@@H](O)[C@]3(CC[C@@](C)([C@H]4CC[C@](O)(CC)[C@H](C)O4)O3)O2)[C@H](C)C[C@@H]1C` [salinomycin, reference compound] had a minimum inhibitory concentration (MIC) in data set [3] of 1.88 µg/mL (≈ 2.5 µM).

In general, MIC refers to the lowest concentration that inhibits growth of the organism.
